Experimental data from US20180228720A1, “MELANOGENESIS INHIBITOR” (TAKASAGO INTERNATIONAL CORPORATION, priority 2015, published 2018).
One block for each compound: values may come before it.

Tests used:
B-16 melanoma cells = test: Evaluation for melanin production-inhibitory activity against pigment cells; type: cell-based; conditions: cultured 4 days with sample, relative to negative control
Procedure: With respect to the components (compounds) of Examples 1 to 3 and Reference Example 1 shown in Table 1, the following test was performed, thereby studying the evaluation for melanin production-inhibitory activity.
In a plastic culture flask (25 cm^2), B-16 melanoma cells in a number of 1×10^5 were seeded and cultured in a 10% serum-containing DMEM medium (manufactured by Nippon Suisan Kaisha, Ltd.) in the presence of 5% carbon dioxide at 37° C. One day after the culture, an evaluation sample diluted with ethanol was added, and the cells were further cultured for 4 days. After completion of the culture, the medium was removed, and the cells were rinsed with PBS (phosphate buffer solution). Thereafter, the cells were detached from the plate by using a medium containing trypsin and EDTA (ethylenediaminetetraacetic acid) and harvested by means of centrifugation. The resulting cells were rinsed three times with 1 mL of 5% trichloroacetic acid controlled at 4° C., rinsed twice with 1 mL of an ethanol/diethyl ether (3/1) solution, and then rinsed once with 1 mL of diethyl ether. After drying, 1 mL of 2N sodium hydroxide was added to dissolve the cells at 60° C. After allowing the solution to stand for cooling, an absorbance at 415 nm was measured, thereby measuring the amount of melanin. Each measured value was calculated as a relative value (%) relative to a value of a negative control in which the evaluation sample was not exposed. The evaluation was performed by three times repetition.

[1] = tested on: melanocyte-containing human three-dimensional cultured epidermal model, LabCyte MELANO-MODEL 24; test: Skin-whitening activity using melanocyte-containing human three-dimensional cultured epidermal tissue (amount of melanin, number of living cells by MTT); type: cell-based; conditions: sample 0.10% (positive control), 2 weeks culture, relative to negative control
Procedure: A melanocyte-containing human three-dimensional cultured epidermal model, LabCyte […]-MODEL 24 (manufactured by Japan Tissue Engineering Co., Ltd.) was cultured in accordance with an instruction manual. That is, a culture cup having a human cultured epidermis charged therein was soaked in 1.5 mL of an improved melanin production-promoting medium, and an evaluation sample was added in the cup and exposed, followed by culture at 37° C. for 2 weeks in the presence of 5% carbon dioxide. The medium and the evaluation sample were exchanged once every two to three days. After completion of the culture, the number of living cells and the amount of melanin were measured according to the MTT assay by a method described in the instruction manual. Each measured value was calculated as a relative value (%) relative to a value of a negative control in which the evaluation sample was not exposed. The evaluation was performed by three times repetition.

melanin production = conditions: background art, Patent Documents 2 to 4; cited from earlier work

Structure (SMILES): OC[C@H]1O[C@@H](Oc2ccc(O)cc2)[C@H](O)[C@@H](O)[C@@H]1O [Arbutin]
Melanin inhibition ratio (%) (B-16 melanoma cells; 3.13 μg/mL): 39% | Melanin inhibition ratio (%) (B-16 melanoma cells; 6.25 μg/mL): 50% | Melanin inhibition ratio (%) (B-16 melanoma cells; 12.5 μg/mL): 71%

Number of living cells (%) ([1]; MTT assay): 92.3 ± 8.8%
Structure (SMILES): O=c1cc(CO)occ1O [Kojic acid]
Amount of melanin (%) [1]: 48.4 ± 4.0%

Structure (SMILES): C[C@@H]1CC[C@H]2C(C)(C)[C@H]3C[C@@]12CC[C@@]3(C)O [cedrol]
Effect on melanin production (in words) (melanin production): exhibits a melanin production-inhibitory effect

Structure (SMILES): C=CC(C)(O)CCC=C(C)CCC=C(C)C (stereo not shown) [nerolidol]
Effect on melanin production (in words) (melanin production): exhibits a melanin production-inhibitory effect
